Results on five compounds are retold here after ChEMBL document CHEMBL2016539 (Bioorg Med Chem Lett, 2012).

For experiment [1], the target named is Inosine-5'-monophosphate dehydrogenase 2 (Homo sapiens, UniProt P12268). Put plainly: Inhibition of IMPDH2 using inosine 5'-monophosphate as substrate by spectrophotometry.
Experiment [2] is described as follows: Immunosuppressive activity in C57BL/6 mouse T lymphocytes assessed as inhibition of cell proliferation after 72 hrs by MTT assay. It counts as functional, cell-based. To be noted: C57BL/6, T-cell.

Some results are limits rather than exact numbers.

As to `COc1c(C)c2c(c(O)c1CC(O)C(C)(O)C(O)CC(=O)O)C(=O)OC2` (centres undefined) [PENICACID C], the figures for the IC50 in experiment [1] and in experiment [2] were 73.2 µM and over 30 µM, respectively.

Take `COc1c(C)c2c(c(OC)c1C/C=C(\C)[C@@H](O)CC(=O)O)C(=O)OC2` [PENICACID A]: the results for the IC50 in experiment [1] and in experiment [2] were 28.9 µM and 2.46 µM, respectively.

With `COc1c(C)c2c(c(O)c1C/C=C(\C)[C@H](CC(=O)O)O[C@H]1O[C@H](CO)[C@@H](O)[C@H](O)[C@H]1O)C(=O)OC2` [PENICACID B], the half-maximal inhibitory concentration (IC50) – broadly, the point on the concentration scale where inhibition reaches its midpoint – was 6.43 µM in experiment [1] and over 20 µM in experiment [2].

As to `COc1c(C)c2c(c(O)c1C/C=C(\C)CCC(=O)O)C(=O)OC2` [MYCOPHENOLIC ACID], the concentration for half-maximal inhibition (IC50) in experiment [2] worked out at 0.32 µM.

`COc1c(C)c2c(c(O)c1C/C=C(\C)[C@@H](O)CC(=O)O)C(=O)OC2`: the IC50 in experiment [1] came to 1.79 µM; in experiment [2] it was 1.1 µM.
